{"source": "patent US12410229B2", "about": "“PTH mimetic peptide based on protein domain reconstruction and application thereof” (priority 2018, dated 2025)", "key": {"[1]": {"test_system": "Bone marrow cells from the bone marrow cavity of 7-week-old mice", "assay": "Intermittent (4 h/48 h) PTH mimetic peptide stimulation, osteoclast formation (TRAP)", "assay_type": "cell-based, mouse", "procedure": "Bone marrow cells from the bone marrow cavity of 7-week-old mice were extracted and cultured in 24-well plates at a density of 1×10^5/well. The 4 h/48 h intermittent PTH mimetic peptide stimulation experiment was carried out as described above. After 7 days, tartrate resistant acid phosphatase (TRAP) staining (bottom row of the holes in FIG. 1A) and quantification were performed (FIG. 1D).\n(§1) Primary osteoblasts (two rows of the holes in A) of mouse skulls were intermittently treated with PTH (1-34), MY-3 and MY-1. (within 48 hours, PTH peptide was added to the medium for 4 hours, removed, and cultured in the ordinary medium for 44 hours, then started all over again). At 2 weeks, alkaline phosphatase (ALP) staining (A) and quantification (B) wells were performed in the cell culture. 4 Weekly, calcium nodule staining (A) and calcium ion quantification (C) were performed in culture wells. Bone marrow cells in the femoral shaft bone marrow cavity (lower hole A) received the same treatment with three peptides mentioned above. Two weeks later, tartrate resistant acid phosphatase (TRAP) staining (A) and quantification (D) were performed. […] The same experiment was repeated three times, and same results were obtained. *P<0.05 vs control group (CON), #P<0.05 vs PTH (1-34)."}, "[2]": {"test_system": "C57BL female mice", "assay": "Ovariectomy osteoporosis model, tibia histology (paraffin section)", "assay_type": "in vivo, mouse", "settings": "OVX mice, 2 and 4 weeks, compared with the control group; MY-1 400, PTH (1-34) and MY-3 40 μg/kg/day", "procedure": "An osteoporosis model was constructed by removing the ovaries of 7-week-old C57BL female mice. Mice were subcutaneously injected with PTH (3-34) (400 μg/kg/day), MY-1 peptide (400 μg/kg/day), PTH (1-34) (40 μg/kg/day) and MY-3 peptide (40 μg/kg/day) daily (5 days a week), respectively. Mice were sacrificed at 2 and 4 weeks and their tibias were separated, then the cancellous bone mass (BV/TV) and bone mineral density (BMD) of the tibias were measured by micro-CT (FIG. 4).\nMY-3 has a stronger anti-bone loss effect than PTH (1-34)-through histological studies. The preparation of the osteoporosis animal model and the administration method of the PTH mimetic peptide was the same as in Example 4. After 2 and 4 weeks, the tibias of experimental mice were removed, decalcified, and prepared for paraffin section. At last, the osteoclast was stained."}, "[3]": {"test_system": "Bone marrow cells from the bone marrow cavity of femur in 7-week-old mice", "assay": "Continuous PTH mimetic peptide stimulation, osteoclast formation (TRAP)", "assay_type": "cell-based, mouse", "procedure": "Bone marrow cells from the bone marrow cavity of femur in 7-week-old mice were extracted and seeded in 24-well plates at a density of 1×10^5/well. The 48 h continuous PTH mimetic peptide stimulation experiment was carried out as described above. After 7 days, tartrate resistant acid phosphatase (TRAP) staining (bottom row of holes in FIG. 2A) and quantification were performed (FIG. 2D).\n(§2) Primary osteoblasts (two rows of the holes in A) of mouse skulls were continuously treated with PTH (1-34), MY-3 and MY-1 (within the 48-hour culture cycles, PTH peptide stayed in the culture medium at all times). After 2 weeks, alkaline phosphatase (ALP) staining (A) and quantification (B) wells were performed in the cell culture. After 4 Weeks, calcium nodule staining (A) and calcium ion quantification (C) were performed in culture wells. Bone marrow cells in the femoral shaft bone marrow cavity (lower hole A) received the same treatment with three peptides as described above. Two weeks later, tartrate resistant acid phosphatase (TRAP) staining (A) and quantification (D) were performed. […] The same experiment was repeated three times and same results were obtained. […], #P<0.05 vs PTH (1-34)."}, "[4]": {"settings": "clinical applications, in general; cited from earlier work"}, "[5]": {"test_system": "mouse bone marrow cells", "assay": "Realtime PCR gene expression after PTH peptide stimulation, bone marrow cells", "assay_type": "cell-based", "settings": "continuous stimulation of bone marrow cells (FIG. 3D)", "procedure": "(§3) Primary mouse skull osteoblasts (FIGS. 3A and 3B) and mouse bone marrow cells (FIGS. 3C and 3D) were cultured in cell culture plates. When the cells completely cover the bottom of the culture well, changed to a medium containing 1% fetal bovine serum, added with different concentrations of PTH mimetic peptide (the concentration is the same as above). Cells receiving intermittent stimulation (FIG. 3A and FIG. 3C) were treated with PTH peptides for 4 hours, and normal medium for 44 hours. Such 48-hour cycle repeated three times.\n(§4) Cell RNA was extracted 4 hours after the last PTH peptide stimulation for Realtime PCR detection. Cells receiving continuous stimulation (FIG. 3B and FIG. 3D) were cultured in the medium with PTH peptides, and the culture medium containing peptides was changed 48 hours later. Repeated such cycle three times. After 48 hours of the last PTH peptide stimulation, cellular RNA was extracted for Realtime PCR detection. As shown in the figure, the average value and standard deviation of an independent experiment (triple holes) were obtained. The same experiment was repeated three times and same results were obtained. *P<0.05 vs control group (CON), #P<0.05 vs PTH (1-34)."}, "[6]": {"test_system": "Primary osteoblasts of mouse skulls", "assay": "Intermittent (4 h/48 h) PTH mimetic peptide stimulation, osteoblast differentiation (ALP, calcium nodules)", "assay_type": "cell-based", "procedure": "Osteoblasts were isolated from the skulls of newborn mice and cultured in vitro. The cell at density of 1×10^5/well was inoculated in a 24-well culture plate. After 3 days, a 4 h/48 h intermittent PTH mimetic peptide stimulation experiment was started, which the PTH mimetic peptide was added to the culture system at the corresponding concentration (containing 10% serum+α-MEM Culture medium). After 4 hours, the culture solution was aspirated, the adherent cells were gently washed once with α-MEM medium, then 10% serum+α-MEM medium was added and continued culturing for 44 hours. Repeated this cycle. Concentration: MY-1 peptide 10^−6 M, PTH (1-34) peptide 10^−8 M, MY-3 peptide 10^−8 M.\nAlkaline phosphatase staining was performed after 2 weeks, and calcium nodule staining was performed after 4 weeks (FIG. 1A, upper two rows of the holes). Alkaline phosphatase expression and calcium ion concentration of each well were quantitative detected (FIGS. 1B and 1C).\nas §1"}, "[7]": {"test_system": "Primary osteoblasts of mouse skulls", "assay": "Continuous PTH mimetic peptide stimulation, osteoblast differentiation (ALP, calcium nodules)", "assay_type": "cell-based", "procedure": "Osteoblasts were isolated from the skulls of newborn mice and cultured in vitro. The cell at density of 1×10^5/well was inoculated in the 24-well culture plate. After 3 days, the continuous PTH mimetic peptide stimulation experiment was started. The PTH mimetic peptide was added to the culture system (containing 10% serum+α-MEM medium) at the corresponding concentration. After 48 hours, when the medium is changed, the PTH mimetic peptide was added again, meaning the PTH mimetic peptide is always in the culture solution. Concentration: MY-1 peptide 10^−6 M, PTH (1-34) peptide 10^−8 M, MY-3 peptide 10^−8 M. Alkaline phosphatase staining was performed 2 weeks later, and calcium nodule staining was performed 4 weeks later (FIG. 2A, upper two rows of the holes). The expression of alkaline phosphatase and the concentration of calcium ion in each well were quantitatively detected (FIGS. 2B and 2C).\nas §2"}, "[8]": {"test_system": "Primary mouse skull osteoblasts", "assay": "Realtime PCR gene expression after PTH peptide stimulation, osteoblasts", "assay_type": "cell-based", "settings": "intermittent stimulation", "procedure": "as §3, §4"}}}
{"smiles": "CC[C@H](C)[C@H](NC(=O)[C@H](CCC(=O)O)NC(=O)[C@H](CO)NC(=O)[C@@H](NC(=O)[C@@H](N)CO)C(C)C)C(=O)N[C@@H](CCC(N)=O)C(=O)N[C@@H](CC(C)C)C(=O)N[C@@H](CCSC)C(=O)N[C@@H](Cc1cnc[nH]1)C(=O)N[C@@H](CC(N)=O)C(=O)N[C@@H](CC(C)C)C(=O)NCC(=O)N[C@@H](CCCCN)C(=O)N[C@@H](Cc1cnc[nH]1)C(=O)N[C@@H](CC(C)C)C(=O)N[C@@H](CC(N)=O)C(=O)N[C@@H](CO)C(=O)N[C@@H](CCSC)C(=O)N[C@@H](CCC(=O)O)C(=O)N[C@@H](CCCN=C(N)N)C(=O)N[C@H](C(=O)N[C@@H](CCC(=O)O)C(=O)N[C@@H](Cc1c[nH]c2ccccc12)C(=O)N[C@@H](CC(C)C)C(=O)N[C@@H](CCCN=C(N)N)C(=O)N[C@@H](CCCCN)C(=O)N[C@@H](CCCCN)C(=O)N[C@@H](CC(C)C)C(=O)N[C@@H](CCC(N)=O)C(=O)N[C@@H](CC(=O)O)C(=O)N[C@H](C(=O)N[C@@H](Cc1cnc[nH]1)C(=O)N[C@@H](CC(N)=O)C(=O)N[C@@H](Cc1ccccc1)C(=O)O)C(C)C)C(C)C", "note": "[PTH (1-34), Teriparatide, reference compound]", "values": [{"measurement": "TRAP", "setting": "[1]; intermittent 4 h/48 h stimulation, after 7 days, MY-1 10^−6 M, PTH (1-34) 10^−8 M, MY-3 10^−8 M, mean ± SD", "result": "9.61 ± 1.78", "unit": "U/g protein"}, {"measurement": "osteoclast formation (in words)", "setting": "[1]; intermittent stimulation, TRAP staining", "result": "the same effect of promoting osteoclast formation"}, {"measurement": "number of trabecular bones (in words)", "setting": "[2]", "result": "increased"}, {"measurement": "osteoclast formation (in words)", "setting": "[3]; TRAP staining", "result": "the same effect on promoting osteoclast formation"}, {"measurement": "TRAP", "setting": "[3]; after 7 days, MY-1 10^−6 M, PTH (1-34) 10^−8 M, MY-3 10^−8 M, mean ± SD", "result": "11.80 ± 1.99", "unit": "U/g protein"}, {"measurement": "reduction of the incidence of vertebral fractures", "setting": "[4]", "result": "about 76%"}, {"measurement": "RANKL expression (in words)", "setting": "[5]", "result": "significantly promoted RANKL expression"}, {"measurement": "expression of ALP and OC (in words)", "setting": "[5]", "result": "inhibited the expression of ALP and OC"}, {"measurement": "ALP", "setting": "[6]; intermittent 4 h/48 h stimulation, 2 weeks, MY-1 10^−6 M, PTH (1-34) 10^−8 M, MY-3 10^−8 M, mean ± SD", "result": "4.91 ± 0.55", "unit": "U/g protein"}, {"measurement": "Calcium", "setting": "[6]; intermittent 4 h/48 h stimulation, 4 weeks, MY-1 10^−6 M, PTH (1-34) 10^−8 M, MY-3 10^−8 M, mean ± SD", "result": "0.49 ± .06 mmole/g protein"}, {"measurement": "osteogenic differentiation of osteoblasts (in words)", "setting": "[6]; intermittent stimulation", "result": "can promote osteogenic differentiation of osteoblasts"}, {"measurement": "osteogenic differentiation of osteoblasts (in words)", "setting": "[7]", "result": "inhibit the differentiation of osteoblasts"}, {"measurement": "ALP", "setting": "[7]; 2 weeks, MY-1 10^−6 M, PTH (1-34) 10^−8 M, MY-3 10^−8 M, mean ± SD", "result": "1.02 ± 0.28", "unit": "U/g protein"}, {"measurement": "Calcium", "setting": "[7]; 4 weeks, MY-1 10^−6 M, PTH (1-34) 10^−8 M, MY-3 10^−8 M, mean ± SD", "result": "0.12 ± 0.03", "unit": "mmole/g protein"}, {"measurement": "expression of osteogenic marker gene ALP and OC (in words)", "setting": "[8]", "result": "promote the expression of osteogenic marker gene ALP and OC"}]}
